Results: publication PMC9515143, “Phosphorylation of Jhd2 by the Ras-cAMP-PKA(Tpk2) pathway regulates histone modifications and autophagy” (Nature Communications, 2022)

What was measured:
Tpk2-as [1] = test: In vitro kinase assay, Tpk2-as, Jhd2 substrate; format: biochemical, budding yeast (Saccharomyces cerevisiae); details: 25 μM 1NM-PP1, in vitro kinase assay, 30 °C, Western blot
Experimental: (§1) 0–300 ng purified Jhd2 was mixed with or without 200 ng TAP purified Tpk2 in 2×kinase reaction buffer (100 mM Tris-HCl pH 7.4, 100 mM MgCl2, 10 mM ATP, 0.2 μM PMSF, 1 mM Na3VO4, 5% glycerol) at 30 °C. Equal aliquots were taken at different time points, and the reaction was quenched by adding 2×SDS-PAGE loading buffer and incubated at 95 °C for 10 min. Boiled samples were resolved on 10% SDS-PAGE and subjected to Western blot analysis.

WT Tpk2 = test: In vitro kinase assay, WT Tpk2, Jhd2 substrate; format: biochemical, budding yeast (Saccharomyces cerevisiae); details: 25 μM 1NM-PP1, in vitro kinase assay, 30 °C, Western blot
Experimental: as §1

Tpk2-as [2] = test: Intracellular H3K4me3 in Tpk2-as mutant with 1NM-PP1; format: cell-based, budding yeast (Saccharomyces cerevisiae); details: 25 μM 1NM-PP1, 0.5 hr, Western blot
Experimental: (§2) To examine the effect of glucose on histone modifications, yeast cells were grown in 2% glucose-containing YPD (Yeast Extract Peptone Dextrose) medium until OD600 of 0.7–1.0. Cells were then collected, washed and resuspended in YP medium for 3 hr followed by treatment with different concentrations of glucose for 0.5 hr. For 1NM-PP1 (MCE, HY-13804) treatment, cells were grown in 2% YPD until OD600 of 0.7–1.0. Cells were then treated with 25 μM 1NM-PP1 for 0.5 hr. For FBP and pyruvate treatment, cells were pre-treated with Zymolase (Mpbio, 08320921) to increase the permeability. In brief, cells were grown in YPD medium until OD600 of 0.7–1.0, centrifuged and resuspended in 1 ml SB buffer (100 mM Sorbitol, 20 mM Tris pH 7.4). 10 μl Zymolase was then added and incubated at 30 °C for 15 min. The spheroplasts were washed and cultured in YPD medium containing different concentrations of FBP and pyruvate for 3 hr.
(§3) Cells were grown in 5 ml YPD or selective medium until OD600 of 0.7–1.0. Cells were harvested and lysed in alkaline lysis buffer (2 M NaOH, 8% 2-mercaptoethanol). After centrifugation, the protein pellet was resuspended in 150 μl 2×SDS-sample buffer. Protein samples were separated by 8–15% SDS-PAGE and transferred to PVDF membrane. […] The protein bands were visualized using the ECL Chemiluminescence Detection Kit (Bio-Rad, 170–5061) and quantified with Image J software (v.1.8.0). […]

Tpk1-as = test: Intracellular H3K4me3 in Tpk1-as mutant with 1NM-PP1; format: cell-based, budding yeast (Saccharomyces cerevisiae); details: 25 μM 1NM-PP1, 0.5 hr, Western blot
Experimental: as §2, §3

Tpk3-as = test: Intracellular H3K4me3 in Tpk3-as mutant with 1NM-PP1; format: cell-based, budding yeast (Saccharomyces cerevisiae); details: 25 μM 1NM-PP1, 0.5 hr, Western blot
Experimental: as §2, §3

Tpk2-as [3] = test: Intracellular Jhd2 phosphorylation in Tpk2-as mutant with 1NM-PP1; format: cell-based, budding yeast (Saccharomyces cerevisiae); details: 25 μM 1NM-PP1, 0.5 hr, Western blot
Experimental: as §2, §3

WT cells = test: Intracellular Jhd2 phosphorylation in WT cells with 1NM-PP1; format: cell-based, budding yeast (Saccharomyces cerevisiae); details: 25 μM 1NM-PP1, 0.5 hr, Western blot
Experimental: as §2, §3

SMILES: CC(C)(C)n1nc(Cc2cccc3ccccc23)c2c(N)ncnc21 [1NM-PP1]
- inhibition of Tpk2-catalyzed Jhd2 phosphorylation in vitro, Tpk2-as (Tpk2-as [1]): directly inhibited Tpk2-catalyzed Jhd2 phosphorylation
- Jhd2 phosphorylation in vitro, WT Tpk2 (WT Tpk2): Jhd2 was phosphorylated by WT Tpk2 but not Tpk2-as mutant when treated with 25 μM 1NM-PP1
- intracellular H3K4me3, Tpk2-as mutant (Tpk2-as [2]): significantly reduced by 1NM-PP1 in Tpk2-as mutant
- intracellular H3K4me3, Tpk1-as mutant (Tpk1-as): significantly reduced by 1NM-PP1 in Tpk2-as mutant but not Tpk1-as and Tpk3-as mutants
- intracellular H3K4me3, Tpk3-as mutant (Tpk3-as): significantly reduced by 1NM-PP1 in Tpk2-as mutant but not Tpk1-as and Tpk3-as mutants
- intracellular Jhd2 phosphorylation, Tpk2-as mutant (Tpk2-as [3]): significantly reduced in Tpk2-as mutant
- intracellular Jhd2 phosphorylation, WT cells (WT cells): significantly reduced in Tpk2-as mutant but not WT cells
